In the oligonucleotide strings, read from the 5' end, every base follows the letter of its sugar. An asterisk marks phosphorothioate; unmarked linkages are phosphodiester. Other units and linkages are bracketed, terminal groups are in braces. A string of capitals states the bases alone. d = 2'-deoxy (DNA); m = 2'-O-methyl
Molecular target: T1, human TLR7 (Homo sapiens, UniProt Q9NYK1)
T1 construct: HA; host or cells: 293XL-hTLR7-HA (HEK293)
T1 sequence (Q9NYK1 27-1049): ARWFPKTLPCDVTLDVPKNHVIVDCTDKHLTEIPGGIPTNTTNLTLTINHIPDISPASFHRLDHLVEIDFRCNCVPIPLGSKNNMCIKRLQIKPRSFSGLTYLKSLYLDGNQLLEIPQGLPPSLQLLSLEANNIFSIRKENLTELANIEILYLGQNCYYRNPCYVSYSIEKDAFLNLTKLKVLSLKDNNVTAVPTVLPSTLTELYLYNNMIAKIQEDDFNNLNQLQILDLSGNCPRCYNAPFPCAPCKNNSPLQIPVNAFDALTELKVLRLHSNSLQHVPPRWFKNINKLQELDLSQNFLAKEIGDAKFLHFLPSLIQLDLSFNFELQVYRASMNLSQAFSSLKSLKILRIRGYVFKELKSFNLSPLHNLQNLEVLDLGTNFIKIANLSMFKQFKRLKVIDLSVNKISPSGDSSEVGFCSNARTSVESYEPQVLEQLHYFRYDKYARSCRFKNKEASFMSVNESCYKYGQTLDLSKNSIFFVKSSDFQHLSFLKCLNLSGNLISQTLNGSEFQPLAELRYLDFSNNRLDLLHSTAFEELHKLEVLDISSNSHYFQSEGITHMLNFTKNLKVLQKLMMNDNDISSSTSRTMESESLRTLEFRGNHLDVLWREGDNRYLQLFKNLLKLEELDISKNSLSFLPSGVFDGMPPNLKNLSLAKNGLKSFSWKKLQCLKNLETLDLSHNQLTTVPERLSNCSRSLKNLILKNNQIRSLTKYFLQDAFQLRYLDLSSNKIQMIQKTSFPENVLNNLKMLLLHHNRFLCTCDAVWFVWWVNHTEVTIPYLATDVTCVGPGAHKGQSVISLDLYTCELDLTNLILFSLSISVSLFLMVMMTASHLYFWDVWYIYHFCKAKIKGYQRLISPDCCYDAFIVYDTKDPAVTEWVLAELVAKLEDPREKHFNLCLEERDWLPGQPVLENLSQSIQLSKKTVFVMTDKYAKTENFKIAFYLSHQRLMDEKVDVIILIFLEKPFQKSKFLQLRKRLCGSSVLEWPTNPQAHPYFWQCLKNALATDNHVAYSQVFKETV
Test: HEK-TLR7 NF-κB-luciferase reporter, R848 stimulation
Format: cell-based
Details: for TLR7-100 nM: averaged NF-κB-Luciferase relative to R848: HEK-TLR7, 100 nM ASO, percentage of R848 without ASO (Alharbi et al., 2020); for TLR7 100 nM (averaged NF-κB-Luciferase level relative to R848 condition): ASO 100 nM; for TLR7 100 nM (averaged NF-κB-Luciferase level relative to R848 condition) / TLR7 500 nM (averaged NF-κB-Luciferase level relative to R848 condition): relative to R848 only, given as fraction; for TLR7 500 nM (averaged NF-κB-Luciferase level relative to R848 condition): ASO 500 nM

Substance	TLR7-100 nM: averaged NF-κB-Luciferase relative to R848 [%]	TLR7 100 nM (averaged NF-κB-Luciferase level relative to R848 condition)	TLR7 500 nM (averaged NF-κB-Luciferase level relative to R848 condition)
mC*mA*mG*mU*mC*T*C*C*A*T*G*T*C*C*C*mA*mG*mG*mC*mC (mC*mA*mG*mU*mC*dT*dC*dC*dA*dT*dG*dT*dC*dC*dC*mA*mG*mG*mC*mC; antisense) [[CDKN2B-AS1]2233]	47.75	–	–
mG*mU*mG*mU*mU*T*T*T*A*A*T*T*T*T*G*mU*mA*mG*mA*mG (mG*mU*mG*mU*mU*dT*dT*dT*dA*dA*dT*dT*dT*dT*dG*mU*mA*mG*mA*mG) [[CDKN2B-AS1]611]	23.63	–	–
CTTGAAGCATCGTATC (antisense; LNA-modified, pattern not given here) [CTNN2B-3648 LNA KL]	–	0.363	0.044
AACACTTCGTGGGGTC (antisense; LNA-modified, pattern not given here) [HPRT LNA-666 V1]	–	0.899	0.445
GCACTTCAGTCTGAGC (antisense; LNA-modified, pattern not given here) [MB21D1-719 LNA KL]	–	0.713	0.168
AGGTCTTGGCTTCGTG (antisense; LNA-modified, pattern not given here) [MB21D1-524 LNA V1]	–	0.457	0.050
TCCTTGCACGTGGCTT (antisense; LNA-modified, pattern not given here) [EGFR-1014 LNA V1]	–	0.812	0.482
TCCACAATCAAGACAT (antisense; LNA-modified, pattern not given here) [HPRT LNA-551 KL]	–	0.863	0.533
GGCACTTTGCCTCCTT (antisense; LNA-modified, pattern not given here) [EGFR-2859 LNA V1]	–	0.774	0.668
CGCTTTTCTGTCTGGT (antisense; LNA-modified, pattern not given here) [CTNN2B-311 LNA KL]	–	0.393	0.142
AGGCCCTTCGCACTTC (antisense; LNA-modified, pattern not given here) [EGFR-1225 LNA V1]	–	0.737	0.164
AGCTTCGAGGCCCCAG (antisense; LNA-modified, pattern not given here) [MB21D1-616 LNA V1]	–	0.554	0.111
GATGGCCTCCCATCTC (antisense; LNA-modified, pattern not given here) [HPRT LNA-331 V1]	–	0.558	0.119
CCAACACTTCGTGGGG (antisense; LNA-modified, pattern not given here) [HPRT LNA-668 V1]	–	0.808	0.446

Source: patent US20240384268A1, “Oligonucleotides” (Hudson Institute of Medical Research, priority 2021, published 2024)
